Test results from patent publication US11953435B2, “Zinc-responsive fluorophores” (Northwestern University, priority 2019, dated 2024).
Entries after “also recorded” stand apart in the source; their conditions may differ.

Tests used:
[1] = Zinc dissociation constant, fluorescence titration in buffered EGTA-zinc solution; format: binding; conditions: for Kd: 200 nM probe, 50 mM HEPES, 0.1 M KNO3, pH 7.2, 10 mM EGTA; for affinity for zinc (in words): compared to other probes
Method: (§1) Aqueous solutions were prepared by using de-ionized water with resistivity […], obtained using a Milli-Q water purification system. In order to properly compare the photophysical properties of ZincBY-2, ZincBY-3, and ZincBY-4 to ZincBY-1, the photophysical properties of ZincBY-1 we remeasured. […] Stock solutions of ZincBY-1, ZincBY-2, ZincBY-3, and ZincBY-4 were prepared at concentrations of 5 mM and stored at −20° C. in aliquots that were used immediately after thawing for each experiment. Unless otherwise stated, all spectroscopic methods were conducted in aqueous buffer containing 50 mM HEPES (pH 7.2) and 0.1 M KNO3. UV-visible spectra were acquired on a PerkinElmer Lambda 650 UV/Vis spectrophotometer using quartz cuvettes from Starna (1 cm path length, 10 cm path length used in extinction coefficient and quantum yield determination). Fluorescence spectra were acquired using a PerkinElmer LS 55 fluorescence spectrophotometer. For measurements containing zinc, 99.0% ZnNO3 hexahydrate (final concentration 5 μM) was used. For experiments analyzing apo probes, N,N,N′,N′-Tetrakis(2-pyridylmethyl)ethylenediamine (TPEN) (final concentration 5 μM) was added to solution. Quantum Yield and Extinction Coefficient Determination. Quantum yields for apo and holo ZincBY-1, ZincBY-2, ZincBY-3, and ZincBY-4 were determined by plotting absorbance vs. fluorescence intensity of solutions containing ZincBY-1, ZincBY-2, ZincBY-3, or ZincBY-4 at probe concentrations ranging from 50-250 nM. Serial dilution was used to make solutions at different concentrations. Fluorescein dissolved in 0.1 N NaOH was used as the quantum yield standard, using a literature-determined quantum yield of 0.95.^3 For all fluorophore solutions, fluorescence excitation was set at 490 nm and fluorescence emission was integrated from 510 nm to 650 nm. Zinc Dissociation Constant. Fluorescence spectra were recorded using zinc probes (ZincBY-1, ZincBY-2, ZincBY-3, or ZincBY-4; 200 nM) and ZnSO4 (various concentrations). The solutions were equilibrated in the dark for 1 h prior to measurement. The concentration of ZnSO4 was varied from 1 μM to 9 mM in buffer solution (50 mM HEPES and 0.1 M KNO3, and pH 7.2) containing 10 mM EGTA. Free Zn^2+ was calculated according to a previously reported method (Ref. B4; incorporated by reference in its entirety). Data was fit to the following one-site binding equation: F=(FminKd+Fmax[Zn^2+])/(Kd+[Zn^2+]) pH Response. The fluorescence spectra of zinc probes (ZincBY-2, ZincBY-3, or ZincBY-4; 200 nM) wasere measured at various pH values (4.5-11). The following buffers were used at 50 mM concentration with 0.1 M KNO3: NaOAc/AcOH (pH 4.0-4.5), MES (pH 5.0-6.5), HEPES (pH 7.0-8.0), CHES (pH 8.5-9.5), CAPS (pH 10.0-11.0). Metal Ion Response. The fluorescence spectra of zinc probes (ZincBY-2, ZincBY-3, or ZincBY-4; 200 nM) were measured in the presence an excess of metal ion including 1 mM KNO3, 1 mM NaNO3, 1 mM CaSO4, 1 mM MgSO4, 15 μM MnSO4, 15 μM (NH4)2Fe(SO4)2, 15 μM NH4Fe(SO4)2, 15 μM CoSO4, 15 μM NiSO4, 15 μM CuSO4, 15 μM [Cu(CH3CN)4]PF6, 15 μM CdSO4, 15 μM Hg(NO3)2, 15 μM Pb(NO3)2, or 15 μM ZnSO4. The fluorescence spectra were compared to that of ZincBY-2 (200 nM), ZincBY-3 (200 nM), or ZincBY-4 (200 nM) in the presence of 10 μM TPEN. Determination of octanol-water partition coefficients (log P). A log P value for each probe was determined by agitating nanomolar solutions of each probe in a 1:1 mixture of HEPES buffer and 1-octanol. Solutions were allowed to settle for 1 h and then the fluorescence intensity of each phase was measured. Standard curves of the fluorescence of known concentrations of probes in both solutions were used to determine concentrations.

[2] = pH response of fluorescence; format: physicochemical; conditions: for fluorescence changes of the Apo probe with pH: Apo (TPEN); for fluorescence changes of the Apo probe with pH / pH range in which fluorescence of the Zn-bound probe is stable: buffers at various pHs; for pH-dependent fluorescence changes: holo and apo forms, physiological pH range (pH 4-8)
Method: as §1

[3] = Metal ion response / selectivity of fluorescence; conditions: for metal ions that inhibit the zinc response: other metal ions in the presence of excess zinc; for fluorescence response to toxic metals (Cd, Hg, Pb): relative fluorescence intensity; for metal ions to which the probe does not respond: relative fluorescence intensity in the presence of other metal ions
Method: as §1

Structure (SMILES)	Kd [1]	affinity for zinc (in words) [1]	fluorescence changes of the Apo probe with pH [2]	pH range in which fluorescence of the Zn-bound probe is stable [2]	pH-dependent fluorescence changes [2]	preference for Zn(II) over other biologically relevant metal ions [3]	metal ions that inhibit the zinc response [3]	fluorescence response to toxic metals (Cd, Hg, Pb) [3]	metal ions to which the probe does not respond [3]	affinity for zinc higher than that of ZincBY-1 ([1]; relative to ZincBY-1)	affinity for zinc weaker than that of ZincBY-1 ([1]; relative to ZincBY-1)
CC(=O)NCCOc1ccc2n1[B-](F)(F)[N+]1=C(N(CCN(Cc3ccccn3)Cc3ccccn3)Cc3ccccn3)C=CC1=C2c1c(C)cc(C)cc1C [ZincBY-4, N-(2-((7-((2-(bis(pyridin-2-ylmethyl)amino)ethyl)(pyridin-2-ylmethyl)amino)-5,5-difluoro-10-mesityl-5H-5λ4,6λ4-dipyrrolo[1,2-c:2′,1′-f][1,3,2]diazaborinin-3-yl)oxy)ethyl)acetamide]	0.229 ± 0.0184 nM	sub-nanomolar	largely unaffected by changes in pH	4-8 pH	neither the holo or apo forms of ZincBY-1 and ZincBY-4 show significant changes in fluorescence	responds preferentially to Zn(II) relative to other biologically relevant metal ions	does not fluoresce in the presence of Cu(II) or Hg, and these ions inhibit the zinc response; also recorded: Fe(II), Fe(III), and Co also seem to inhibit the zinc response	exhibits a fluorescence response to the toxic metals Cd, and Pb	does not respond to changes in K, Na, Ca, Mg, Mn, Ni, or Cu(I) concentration	–	–
Cc1cc(C)c(C2=C3C=CC(OCCN)=[N+]3[B-](F)(F)n3c2ccc3N(CCN(Cc2ccccn2)Cc2ccccn2)Cc2ccccn2)c(C)c1 [ZincBY-3, N1-(7-(2-aminoethoxy)-5,5-difluoro-10-mesityl-5H-4λ4,5λ4-dipyrrolo[1,2-c:2′,1′-f][1,3,2]diazaborinin-3-yl)-N1,N2,N2-tris(pyridin-2-ylmethyl)ethane-1,2-diamine]	0.0977 ± 0.0261 nM	sub-nanomolar	largely unaffected by changes in pH	4-8 pH	–	–	does not fluoresce in the presence of Cu(I) or Cu(II), and these ions inhibit the zinc response; also recorded: Fe(II) and Fe(III) also seem to inhibit a zinc response	exhibits a fluorescence response to the toxic metals Cd, Hg, and Pb	does not respond to changes in K, Na, Ca, Mg, Mn, Co, or Ni concentration	38 fold	–
COc1ccc2n1[B-](F)(F)[N+]1=C(N(CCN(Cc3ccccn3)Cc3ccccn3)Cc3ccccn3)C=CC1=C2c1c(C)cc(C)cc1C [ZincBY-1, reference compound]	3.72 ± 0.87 nM	–	–	–	neither the holo or apo forms of ZincBY-1 and ZincBY-4 show significant changes in fluorescence	responds preferentially to Zn(II) relative to other biologically relevant metal ions	–	–	–	–	–
Cc1cc(C)c(C2=C3C=CC(OCCN=[N+]=[N-])=[N+]3[B-](F)(F)n3c2ccc3N(CCN(Cc2ccccn2)Cc2ccccn2)Cc2ccccn2)c(C)c1 [ZincBY-2, N1-(7-(2-azidoethoxy)-5,5-difluoro-10-mesityl-5H-4λ4,5λ4-dipyrrolo[1,2-c:2′,1′-f][1,3,2]diazaborinin-3-yl)-N1,N2,N2-tris(pyridin-2-ylmethyl)ethane-1,2-diamine]	18.1 ± 2.6 nM	–	largely unaffected by changes in pH	4.5-8.0 pH	–	–	does not fluoresce in the presence of Cu(I) and Cu(II), and these ions inhibit the zinc response	exhibits an increase in fluorescence in response to toxic metals Cd and Hg, but does not respond to Pb	does not respond to changes in K, Na, Ca, Mg, Mn, Fe, Co, or Ni concentration	–	five-fold weaker
